Test results taken from ChEMBL document CHEMBL5107976, “Chalcone-amide, a privileged backbone for the design and development of selective SARS-CoV/SARS-CoV-2 papain-like protease inhibitors” (Eur J Med Chem, 2022).
Values after ≈ are worked out from the molar mass of the structure shown.

Experiments:
[1] = system: Human rhinovirus sp.; assay: Antiviral activity against HRV infected in human HeLa cells assessed as inhibition in virus replication by plaque assay; type: functional, organism-based
[2] = system: SARS-CoV-2; assay: Antiviral activity against SARS-CoV-2 infected in human Caco-2 cells expressing hACE2 assessed as reduction in virus replication; type: functional, organism-based; settings: Severe acute respiratory syndrome coronavirus 2, Caco-2
[3] = biological target: T1, Replicase polyprotein 1ab (Severe acute respiratory syndrome coronavirus 2, UniProt P0DTD1); assay: Inhibition of C-terminal His-tagged SARS-CoV-2 PLpro BetaCoV/Wuhan/WIV04/2019 strain (1564 to 1876 residues) expressed in Escherichia coli BL21(DE3) using FRET substrate measured after 3 hrs by enzymatic assay
[4] = Inhibition of SARS-CoV PLpro using Z-Arg-Leu-Arg-Gly-Gly-AMC acetate as substrate by fluorometric assay; parameters: species or system Severe acute respiratory syndrome-related coronavirus
[5] = system: SARS-CoV-2; assay: Antiviral activity against SARS-CoV-2 infected in human Caco-2 cells expressing hACE2 assessed as reduction in virus replication incubated for 48 hrs by Western blot analysis; type: functional, organism-based; settings: Severe acute respiratory syndrome coronavirus 2, Caco-2, 48 h
[6] = biological target: T1, Replicase polyprotein 1ab; assay: Inhibition of SARS-CoV-2 PLpro
[7] = system: SARS-CoV-2; assay: Antiviral activity against SARS-CoV-2 infected in African green monkey Vero E6 cells assessed as reduction in viral replication at MOI of 0.5 incubated for 23 hrs by plaque assay; type: functional, organism-based; settings: Severe acute respiratory syndrome coronavirus 2, Vero C1008, 23 h
[8] = Cytotoxicity against African green monkey Vero E6 cells assessed as reduction in cell viability; type: toxicity, cell-based, Vero C1008; settings: chlorocebus sabaeus
[9] = Inhibition of SARS-CoV PLpro (1541 to 1855 residues) using RLRGG-AMC as substrate preincubated for 5 mins followed by substrate addition measured after 6 mins by fluorescence based assay; parameters: species or system Severe acute respiratory syndrome-related coronavirus

## CCOc1cc(O)c(C(=O)NCc2ccc(NC)cc2)c(OC)c1
[1]
  IC50: 0.022 µg/mL (≈ 0.0666 µM)

## Cc1ccc(N)cc1CN(C)[C@H](C)c1cccc2ccccc12
[2]
  EC50: 8.89 µM
[3]
  IC50: 0.99 µM

## COc1ccc(CNC(=O)c2c(O)cc(OCC=C(C)C)cc2OC)cc1
[1]
  IC50: 0.0072 µg/mL (≈ 0.0194 µM)

## Cc1ccc(N(C)C)cc1C(=O)N[C@H](C)c1cccc2ccccc12
[4]
  IC50: 4 µM

## C[C@H](c1cccc2ccccc12)N1CCC(C(=O)NCc2cccc(NC(=O)N3CCN(C)CC3)c2)CC1
[5]
  EC50: 0.6 µM

## CCOc1cc(O)c(C(=O)NCc2ccc(OC)cc2)c(OC)c1
[1]
  IC50: 0.014 µg/mL (≈ 0.0422 µM)

## CCOc1cc(O)c(C(=O)/C=C/c2ccc(OC)cc2)c(OC)c1
[1]
  IC50: 0.045 µg/mL (≈ 0.137 µM)

## CNS(=O)(=O)c1ccc(C)c(C(=O)N[C@H](C)c2cccc3ccccc23)c1
[4]
  IC50: 4 µM

## Cc1ccc(NC2CNC2)cc1C(=O)N[C@H](C)c1cccc(-c2ccc(CNC[C@H]3CCCO3)s2)c1
[6]
  IC50: 0.76 µM

## C[C@H](c1cccc2ccccc12)N1CCC(C(=O)NCc2cc(F)cc(NC(=O)N3CCN(C)CC3)c2)CC1
[5]
  EC50: 0.18 µM

## C[C@H](c1cccc2ccccc12)N1Cc2ccc(N)cc2C1
[4]
  IC50: 4.9 µM

## Cc1ccsc1C(=O)N[C@H](C)c1cccc2ccccc12
[4]
  IC50: 14 µM
[7]
  EC50: 4.74 µM
[8]
  CC50: > 500 µM

## COc1cc(O)ccc1CN(C)[C@H](C)c1cccc2ccccc12
[3]
  IC50: 0.58 µM

## Cc1cc(NS(C)(=O)=O)ccc1C(=O)N[C@H](C)c1cccc2ccccc12
[4]
  IC50: 4.8 µM

## C[C@H](c1cccc2ccccc12)N(C)Cc1ccc(O)cc1
[2]
  EC50: 8.32 µM

## C[C@H](c1cccc2ccccc12)N1CCC(C(=O)NCc2cc(F)cc(NC(=O)CN(C)C)c2)CC1
[5]
  EC50: 0.22 µM

## C[C@H](c1cccc2ccccc12)N1Cc2ccc(O)cc2C1
[4]
  IC50: 4.5 µM

## C[C@@H](NC(=O)c1ccccc1Cl)c1cccc2ccccc12
[4]
  IC50: 6.5 µM
[7]
  EC50: 1.77 µM
[8]
  CC50: 376 µM

## Cc1cc(N)ccc1C(=O)N[C@H](C)c1cccc2ccccc12
[4]
  IC50: 1.2 µM
[7]
  EC50: 15.8 µM
[8]
  CC50: > 500 µM

## C[C@H](c1cccc2ccccc12)N1Cc2ccccc2C1
[4]
  IC50: 2.9 µM
[7]
  EC50: 7.85 µM
[8]
  CC50: 442 µM

## COc1ccc(CNC(=O)C2CCN(Cc3cccc4ccccc34)CC2)cc1
[9]
  IC50: 59.2 µM

## Cc1ccc(N)cc1C(=O)N[C@H](C)c1cccc2ccccc12
[2]
  EC50: 25.1 µM
